Values quoted from earlier work as cited in patent US20050027113A1, “Compositions and methods relating to the daptomycin biosynthetic gene cluster” (priority 2001, published 2005).

Columns and labels:
[1] = test system: gram-positive organisms
[2] = administration of daptomycin and an aminoglycoside

## CCCCCCCCCC(=O)N[C@@H](Cc1c[nH]c2ccccc12)C(=O)N[C@H](CC(N)=O)C(=O)N[C@@H](CC(=O)O)C(=O)N[C@@H]1C(=O)NCC(=O)N[C@@H](CCCN)C(=O)N[C@@H](CC(=O)O)C(=O)N[C@H](C)C(=O)N[C@@H](CC(=O)O)C(=O)NCC(=O)N[C@H](CO)C(=O)N[C@@H]([C@H](C)CC(=O)O)C(=O)N[C@@H](CC(=O)c2ccccc2N)C(=O)O[C@@H]1C [daptomycin]
[1]; in vitro experiments
  antibacterial activity against classically resistant strains versus classically susceptible strains: comparable
[1]; susceptible strains, fold lower than vancomycin
  minimum inhibitory concentration (MIC) value against susceptible strains, relative to vancomycin: ~4 fold
[1]; unlike glycopeptide antibiotics
  bactericidal activity against gram-positive organisms: rapid, concentration-dependent bactericidal activity
[2]
  effect on renal toxicity caused by a co-administered aminoglycoside: may ameliorate renal toxicity caused by the aminoglycoside
